Measurements published in patent US12043599B2, “Herbicidal compounds” (SYNGENTA PARTICIPATIONS AG, priority 2018, dated 2024).

Experiments:
Format in all cases: in vivo
Details in all cases: 250 g/h, evaluated after 13 days
[1] = test system: Alopecurus myosuroides (ALOMY); assay: Pre-emergence herbicidal glasshouse test, percentage damage
Outline: (§1)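 Damage assessed 13 days after treatment and expressed as a five-point score (5=80-100%; 4=60-79%; 3=40-59%; 2=20-39%; 1=0-19%). Compound applied at 250 g/h as an acetone/water/0.5% Tween 20 spray, pre-emergence (day 1 after sowing) or post-emergence (day 8). Plants kept at 24/16° C., 14 h light, 65% humidity.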

Avena fatua (AVEFA) [2] = assay: as above
Outline: as §1

[3] = test system: Echinochloa crus-galli (ECHCG); assay: as above
Outline: as §1

Lolium perenne (LOLPE) [4] = assay: as above
Outline: as §1

Setaria faberi (SETFA) [5] = assay: as above
Outline: as §1

Setaria faberi (SETFA) [6] = assay: Post-emergence herbicidal glasshouse test, percentage damage
Outline: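 Percentage damage was scored 13 days after treatment on a five-point scale (1=0-19% to 5=80-100%). Treatments were post-emergence sprays on 8-day-old wheat, barley and SETFA plants in a glasshouse (24/16 °C day/night, 14 h light, 65% humidity), using acetone/water 50:50 with 0.5% Tween 20 at the stated rates. Wheat additionally received cloquintocet-mexyl safener at 50 g/ha.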

[7] = test system: Alopecurus myosuroides (ALOMY); assay: as above
Outline: as §1

Avena fatua (AVEFA) [8] = assay: as above
Outline: as §1

[9] = test system: Echinochloa crus-galli (ECHCG); assay: as above
Outline: as §1

Lolium perenne (LOLPE) [10] = assay: as above
Outline: as §1

SMILES	ALOMY PRE percentage damage (five point scale) [1]	AVEFA PRE percentage damage (five point scale) (Avena fatua (AVEFA) [2])	ECHCG PRE percentage damage (five point scale) [3]	LOLPE PRE percentage damage (five point scale) (Lolium perenne (LOLPE) [4])	SETFA PRE percentage damage (five point scale) (Setaria faberi (SETFA) [5])	SETFA POST percentage damage (five point scale) (Setaria faberi (SETFA) [6])	ALOMY POST percentage damage (five point scale) [7]	AVEFA POST percentage damage (five point scale) (Avena fatua (AVEFA) [8])	ECHCG POST percentage damage (five point scale) [9]	LOLPE POST percentage damage (five point scale) (Lolium perenne (LOLPE) [10])
CC#Cc1cc(C)c(C2C(=O)CC3(CCN(C(=O)[C@H](C)O)CC3)CC2=O)c(C)c1 [Compound A155]	5 (5=80-100%)	5 (5=80-100%)	5 (5=80-100%)	5 (5=80-100%)	5 (5=80-100%)	5 (5=80-100%)	5 (5=80-100%)	5 (5=80-100%)	5 (5=80-100%)	5 (5=80-100%)
CC#Cc1cc(C)c(C2C(=O)CC3(CCN(C(=O)c4cccc(C#N)n4)CC3)CC2=O)c(C)c1 [Compound A178]	4 (4=60-79%)	5 (5=80-100%)	4 (4=60-79%)	5 (5=80-100%)	5 (5=80-100%)	5 (5=80-100%)	5 (5=80-100%)	5 (5=80-100%)	5 (5=80-100%)	5 (5=80-100%)
CC#Cc1cc(C)c(C2C(=O)CC3(CCN(C(=O)COCCC)CC3)CC2=O)c(C)c1 [Compound A186]	5 (5=80-100%)	5 (5=80-100%)	5 (5=80-100%)	5 (5=80-100%)	5 (5=80-100%)	5 (5=80-100%)	5 (5=80-100%)	5 (5=80-100%)	5 (5=80-100%)	5 (5=80-100%)
CC#Cc1cc(C)c(C2C(=O)CC3(CCN(S(=O)(=O)c4ccccn4)CC3)CC2=O)c(C)c1 [Compound A70]	5 (5=80-100%)	5 (5=80-100%)	5 (5=80-100%)	5 (5=80-100%)	5 (5=80-100%)	5 (5=80-100%)	5 (5=80-100%)	5 (5=80-100%)	5 (5=80-100%)	5 (5=80-100%)
CC#Cc1cc(C)c(C2C(=O)CC3(CCN(C(=O)OC(C)(C)C)CC3)CC2=O)c(C)c1 [Compound A12, tert-butyl 9-(2,6-dimethyl-4-prop-1-ynyl-phenyl)-8,10-dioxo-3-azaspiro[5.5]undecane-3-carboxylate]	4 (4=60-79%)	4 (4=60-79%)	5 (5=80-100%)	5 (5=80-100%)	5 (5=80-100%)	5 (5=80-100%)	5 (5=80-100%)	5 (5=80-100%)	5 (5=80-100%)	5 (5=80-100%)
CC#Cc1cc(C)c(C2C(=O)CC3(CCN(C(=O)C4CC4)CC3)CC2=O)c(C)c1 [Compound A8, 3-(cyclopropanecarbonyl)-9-(2,6-dimethyl-4-prop-1-ynyl-phenyl)-3-azaspiro[5.5]undecane-8,10-dione]	5 (5=80-100%)	5 (5=80-100%)	5 (5=80-100%)	5 (5=80-100%)	5 (5=80-100%)	5 (5=80-100%)	5 (5=80-100%)	5 (5=80-100%)	5 (5=80-100%)	5 (5=80-100%)
CC#Cc1cc(C)c(C2=C(OC(=O)OC)CC3(CCN(S(C)(=O)=O)CC3)CC2=O)c(C)c1 [Compound P28]	5 (5=80-100%)	5 (5=80-100%)	5 (5=80-100%)	5 (5=80-100%)	5 (5=80-100%)	5 (5=80-100%)	5 (5=80-100%)	5 (5=80-100%)	5 (5=80-100%)	5 (5=80-100%)
CC#Cc1cc(C)c(C2C(=O)CC3(CCN(C(=O)N(C)OC)CC3)CC2=O)c(C)c1 [Compound A9]	5 (5=80-100%)	5 (5=80-100%)	5 (5=80-100%)	5 (5=80-100%)	5 (5=80-100%)	5 (5=80-100%)	5 (5=80-100%)	5 (5=80-100%)	5 (5=80-100%)	5 (5=80-100%)
CC#Cc1cc(C)c(C2=C(OC(=O)COC)CC3(CCN(C(=O)COC)CC3)CC2=O)c(C)c1 [Compound P18]	5 (5=80-100%)	5 (5=80-100%)	5 (5=80-100%)	5 (5=80-100%)	5 (5=80-100%)	5 (5=80-100%)	5 (5=80-100%)	5 (5=80-100%)	5 (5=80-100%)	5 (5=80-100%)
CC#Cc1cc(C)c(C2C(=O)CC3(CCN(C(=O)Cc4cccnc4)CC3)CC2=O)c(C)c1 [Compound A99]	3 (3=40-59%)	3 (3=40-59%)	5 (5=80-100%)	4 (4=60-79%)	4 (4=60-79%)	5 (5=80-100%)	4 (4=60-79%)	5 (5=80-100%)	5 (5=80-100%)	4 (4=60-79%)
CC#Cc1cc(C)c(C2C(=O)CC3(CCN(C(=O)NC(=O)c4ccc(OC)cn4)CC3)CC2=O)c(C)c1 [Compound A176]	3 (3=40-59%)	2 (2=20-39%)	5 (5=80-100%)	5 (5=80-100%)	5 (5=80-100%)	5 (5=80-100%)	5 (5=80-100%)	2 (2=20-39%)	5 (5=80-100%)	5 (5=80-100%)
CC#Cc1cc(C)c(C2=C(OC(=O)OC)CC3(CCN(C(=O)NOC)CC3)CC2=O)c(C)c1 [Compound P14]	5 (5=80-100%)	5 (5=80-100%)	5 (5=80-100%)	5 (5=80-100%)	5 (5=80-100%)	5 (5=80-100%)	5 (5=80-100%)	5 (5=80-100%)	5 (5=80-100%)	5 (5=80-100%)
CC#Cc1cc(C)c(C2C(=O)CC3(CCN(C(=O)NC(=O)c4ccc(Cl)cn4)CC3)CC2=O)c(C)c1 [Compound A162]	5 (5=80-100%)	5 (5=80-100%)	5 (5=80-100%)	5 (5=80-100%)	5 (5=80-100%)	5 (5=80-100%)	5 (5=80-100%)	5 (5=80-100%)	5 (5=80-100%)	5 (5=80-100%)
